Like-named read-outs stand apart in the source and are kept apart here.
What was measured:
[1] = target: T1, Ba/F3 Pro B-cell line expressing TEL-human MERTK fusion domain (Homo sapiens, UniProt Q12866); format: cell-based
T1 sequence (Q12866 587-858 limits assumed): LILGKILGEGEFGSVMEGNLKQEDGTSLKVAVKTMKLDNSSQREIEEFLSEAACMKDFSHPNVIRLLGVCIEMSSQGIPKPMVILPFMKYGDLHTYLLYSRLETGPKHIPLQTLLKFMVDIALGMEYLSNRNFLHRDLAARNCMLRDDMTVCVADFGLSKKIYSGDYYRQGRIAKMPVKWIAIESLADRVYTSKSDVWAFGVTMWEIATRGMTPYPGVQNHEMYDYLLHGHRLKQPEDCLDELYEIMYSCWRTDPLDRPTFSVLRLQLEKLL
Procedure, shortened: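 Ba/F3 cells dependent on BCR-AXL or TEL-MERTK fusion kinase (IL3-free; IL3 only for control lines) treated with compound 48 h at 37 °C, 0.25% DMSO. Viability by CellTiter-Glo luminescence; IC50 for half-maximal inhibition of survival from 4-parameter variable-slope fit.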

[2] = target: T2, Ba/F3 Pro B-cell line expressing TEL-human Tyro3 fusion domain (Homo sapiens, UniProt Q06418); format: cell-based; conditions: cell survival, 48 h, CellTiter-Glo
T2 sequence (Q06418 518-790 limits assumed): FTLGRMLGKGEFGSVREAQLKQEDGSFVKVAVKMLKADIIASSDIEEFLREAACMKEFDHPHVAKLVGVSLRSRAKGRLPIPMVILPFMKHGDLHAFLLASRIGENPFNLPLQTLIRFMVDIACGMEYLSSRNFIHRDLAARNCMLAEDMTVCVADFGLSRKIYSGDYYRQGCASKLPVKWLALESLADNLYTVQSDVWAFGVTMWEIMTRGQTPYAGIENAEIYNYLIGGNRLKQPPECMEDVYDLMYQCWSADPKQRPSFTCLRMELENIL

[3] = target: T3, human AXL cytoplasmic domain (Homo sapiens, UniProt P30530); assay: Assay 1b AXL HTRF KinEASE-TK assay; format: biochemical
T3 construct: human AXL cytoplasmic domain (Thermo Fisher A31515); purchased Thermo Fisher A31515
T3 sequence (P30530 473-894 limits assumed): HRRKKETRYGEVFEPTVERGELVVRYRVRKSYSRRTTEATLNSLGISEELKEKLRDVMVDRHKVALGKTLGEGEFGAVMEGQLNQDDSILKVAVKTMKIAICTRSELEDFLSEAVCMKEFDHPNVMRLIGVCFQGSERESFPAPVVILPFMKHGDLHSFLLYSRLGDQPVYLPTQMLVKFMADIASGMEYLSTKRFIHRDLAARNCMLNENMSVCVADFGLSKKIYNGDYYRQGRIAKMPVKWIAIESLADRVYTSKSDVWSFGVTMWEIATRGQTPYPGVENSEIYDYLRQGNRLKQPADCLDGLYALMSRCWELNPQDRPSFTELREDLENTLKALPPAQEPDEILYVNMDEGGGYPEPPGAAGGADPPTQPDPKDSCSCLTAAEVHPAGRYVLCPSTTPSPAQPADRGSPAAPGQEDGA
Procedure, shortened: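 Recombinant cytoplasmic domain (5 nM) in kinase buffer with 5 mM MgCl2, 1 mM MnCl2, 1 mM DTT, 50 nM SEB plus test compounds; reaction 30 min at room temperature. EDTA-containing detection with TK antibody-cryptate/streptavidin-XL665 for 60 min; HTRF 665/620 ratio read. IC50 from 4-parameter logistic fit with variable slope.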

[4] = target: T4, Ba/F3 Pro B-cell line expressing BCR-human AXL kinase domain fusion protein (Homo sapiens, UniProt P30530); assay: Assay 5 Ba/F3 cell survival assay, BCR-Axl; format: cell-based; conditions: read-out: BCR-Axl Ba/F3 IC50, 48 h, CellTiter-Glo
T4 construct: P11274 (Breakpoint cluster region protein)
T4 sequence (P30530 536-807 limits assumed): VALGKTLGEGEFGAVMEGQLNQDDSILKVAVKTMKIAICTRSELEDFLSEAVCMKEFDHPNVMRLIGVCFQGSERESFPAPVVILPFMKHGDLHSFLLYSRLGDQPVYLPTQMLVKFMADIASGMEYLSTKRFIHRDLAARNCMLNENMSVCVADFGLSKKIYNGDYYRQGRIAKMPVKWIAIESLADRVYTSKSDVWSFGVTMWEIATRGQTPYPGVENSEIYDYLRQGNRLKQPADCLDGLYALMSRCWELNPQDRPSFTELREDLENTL
Description: Assay 5—Ba/F3 Cell Survival Assays.
The inhibitory potencies of compounds were assessed in a Ba/F3 cell survival assay, using the Ba/F3 Pro B-cell line, recombinantly expressing a BCR-human AXL kinase domain fusion protein (pACD320/AXL, Advanced Cellular Dynamics Inc), TEL-human MERTK fusion domain (pACD1000/MERTK, Advanced Cellular Dynamics Inc), TEL-human Tyro3 fusion domain (pACD1000/TYRO3, Advanced Cellular Dynamics Inc), or control TEL-none (ACD320, Advanced Cellular Dynamics Inc) BRC-none constructs (ACD1000, Advanced Cellular Dynamics Inc). 10 ng/mL recombinant murine IL3 (R&D, 403-ML-010) was included in the media when propagating negative control TEL-none or BCR-none lines only. […] The final assay DMSO concentration was 0.25%. Compound incubations were conducted for 48 h at 37° C./5% CO2, after which cell plate was equilibrated at room temperature for 20 minutes prior to assessing viability. 15 μl of Promega CellTiter-Glo reagent (G7572) was added to each well for 2 min on an orbital shaker to induce cell lysis.
The plate was then equilibrated for 5 min at room temperature and luminescence read on a BMG Pherastar FSX using the LUM plus optic module. […] Competition curves were then fit to a 4 parameter logistic equation including a variable slope factor to determine the IC50 (compound concentration causing a half-maximal inhibition of cell survival).

[5] = target: T5, human MERTK cytoplasmic domain (Homo sapiens, UniProt Q12866); assay: biochemical
T5 construct: human MERTK cytoplasmic domain (Carna Biosciences 08-108); purchased Carna Biosciences 08-108
Description: Assay 1a—MERTK HTRF KinEASE-TK Assay
The enzymatic reaction was carried out for 30 min at room temperature. 10 μL TK Antibody-Cryptate/Streptavidin-XL665 (Cisbio 610SAXLG) was then added for 60 min, including EDTA containing detection buffer (Cisbio 62SDBRDF) to stop the reaction.

[6] = read-out: TEL-MERTK Ba/F3 IC50; cell survival, 48 h, CellTiter-Glo
[7] = cell survival, 48 h, CellTiter-Glo; read-out: TEL-MERTK Ba/F3 IC50
[8] = 30 uM ATP, read-out: Assay 1a Mer IC50 30 uM ATP

T5 sequence (Q12866 527-999): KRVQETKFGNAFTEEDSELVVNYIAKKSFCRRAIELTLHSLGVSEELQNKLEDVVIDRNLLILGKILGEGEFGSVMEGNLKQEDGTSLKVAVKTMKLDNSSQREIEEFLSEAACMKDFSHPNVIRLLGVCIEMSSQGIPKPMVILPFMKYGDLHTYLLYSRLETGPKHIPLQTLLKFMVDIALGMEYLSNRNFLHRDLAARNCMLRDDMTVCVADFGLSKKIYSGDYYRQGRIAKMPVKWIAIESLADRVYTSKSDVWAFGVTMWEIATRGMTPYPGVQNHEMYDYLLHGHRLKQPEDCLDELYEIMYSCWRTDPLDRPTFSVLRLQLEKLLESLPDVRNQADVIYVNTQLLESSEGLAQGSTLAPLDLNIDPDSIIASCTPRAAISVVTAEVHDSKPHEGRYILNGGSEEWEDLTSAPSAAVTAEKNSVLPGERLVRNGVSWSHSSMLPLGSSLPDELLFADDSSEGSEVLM

Row | Structure (SMILES) | IC50 [3] | IC50 [5, 8] | IC50 ([3]; # 1 μM ATP used in assay, read-out: Assay 1b Axl IC50) | IC50 [1, 6] | IC50 [2] | IC50 [4] | IC50 [5] | IC50 [1, 7]
1 | CC(C)n1cc(C(=O)Nc2ccc(Oc3ccnc4cnc(N5CCN(C6COC6)CC5)cc34)cn2)c(=O)n(-c2ccc(F)cc2)c1=O [Example 20.1, 3-(4-fluorophenyl)-1-isopropyl-N-[5-[[6-[4-(oxetan-3-yl)piperazin-1-yl]-1,7-naphthyridin-4-yl]oxy]-2-pyridyl]-2,4-dioxo-pyrimidine-5-carboxamide] | 5 nM | – | – | 27 nM | 452 nM | 15 nM | 5 nM | –
2 | CC(C)n1cc(C(=O)Nc2ccc(Oc3ccnc4cnc(N5CCN(C6COC6)CC5)cc34)cn2)c(=O)c(-c2ccc(F)cc2)c1 [Example 20.2, 5-(4-fluorophenyl)-1-isopropyl-N-[5-[[6-[4-(oxetan-3-yl)piperazin-1-yl]-1,7-naphthyridin-4-yl]oxy]-2-pyridyl]-4-oxo-pyridine-3-carboxamide] | 7 nM | 1 nM | – | – | 220 nM | 2 nM | – | 5 nM
3 | O=C(Nc1ccc(Oc2ccnc3cnc(C4CCNC4)cc23)cn1)c1cccn(-c2ccc(F)cc2)c1=O (stereo not drawn) [Example 21, 1-(4-fluorophenyl)-2-oxo-N-[5-[(6-pyrrolidin-3-yl-1,7-naphthyridin-4-yl)oxy]-2-pyridyl]pyridine-3-carboxamide] | 247 nM | 57 nM | – | – | 2390 nM | 203 nM | – | 217 nM
4 | CC(C)C(=O)N1CCC(c2cc3c(Oc4ccc(NC(=O)c5cccn(-c6ccc(F)cc6)c5=O)nc4)ccnc3cn2)CC1 [Example 22, 1-(4-fluorophenyl)-N-[5-[[6-[1-(2-methylpropanoyl)-4-piperidyl]-1,7-naphthyridin-4-yl]oxy]-2-pyridyl]-2-oxo-pyridine-3-carboxamide] | 5 nM | – | – | 10 nM | > 2500 nM | 10 nM | 1 nM | –
5 | CN1CCC(Oc2cc3c(Oc4ccc(NC(=O)c5cccn(-c6ccc(F)cc6)c5=O)nc4)ccnc3cn2)CC1 [Example 24, 1-(4-fluorophenyl)-N-[5-[[6-[(1-methyl-4-piperidyl)oxy]-1,7-naphthyridin-4-yl]oxy]-2-pyridyl]-2-oxo-pyridine-3-carboxamide] | 21 nM | – | – | 6 nM | 37 nM | 6 nM | 6 nM | –
6 | Cc1nc(NC(=O)c2cccn(-c3ccc(F)cc3)c2=O)ccc1Oc1ccnc2cnc(C(=O)NC3CCN(C)CC3)cc12 [Example 26, 4-[[6-[[1-(4-fluorophenyl)-2-oxo-pyridine-3-carbonyl]amino]-2-methyl-3-pyridyl]oxy]-N-(1-methyl-4-piperidyl)-1,7-naphthyridine-6-carboxamide] | 360 nM | 19 nM | – | – | 1420 nM | 83 nM | – | 55 nM
7 | CC(C)n1cc(C(=O)Nc2ccc(Oc3ccnc4cnc(C(=O)NC5CCN(C(=O)OC(C)(C)C)CC5)cc34)cn2)c(=O)n(-c2ccc(F)cc2)c1=O [Example 27.1, tert-butyl 4-[[4-[[6-[[3-(4-fluorophenyl)-1-isopropyl-2,4-dioxo-pyrimidine-5-carbonyl]amino]-3-pyridyl]oxy]-1,7-naphthyridine-6-carbonyl]amino]piperidine-1-carboxylate] | 3 nM | 11 nM | – | – | 881 nM | 15 nM | – | 67 nM
8 | Cc1cc(NC(=O)c2cccn(-c3ccccc3)c2=O)ccc1Oc1ccnc2cnc(C(=O)NC3CCN(C)CC3)cc12 [Example 34, 4-[2-Methyl-4-[(2-oxo-1-phenyl-pyridine-3-carbonyl)amino]phenoxy]-N-(1-methyl-4-piperidyl)-1,7-naphthyridine-6-carboxamide] | 296 nM | 43 nM | – | – | 128 nM | 73 nM | – | 144 nM

Further lines, with some results ahead:

Row | IC50 [3] | IC50 [5, 8] | IC50 ([3]; # 1 μM ATP used in assay, read-out: Assay 1b Axl IC50) | Structure (SMILES) | IC50 [1, 6] | IC50 [2] | IC50 [4] | IC50 [5] | IC50 [1, 7]
9 | 46 nM | 9 nM | – | O=C(Nc1ccc(Oc2ccnc3cnc(C4CCNCC4)cc23)cn1)c1cccn(-c2ccc(F)cc2)c1=O [Example 21.1, 1-(4-fluorophenyl)-2-oxo-N-[5-[[6-(4-piperidyl)-1,7-naphthyridin-4-yl]oxy]-2-pyridyl]pyridine-3-carboxamide] | – | 861 nM | 46 nM | – | 35 nM
10 | 76 nM | 29 nM | – | Cc1cc(NC(=O)c2cccn(-c3ccc(F)cc3)c2=O)ncc1Oc1ccnc2cnc(C(=O)NC3CCN(C)CC3)cc12 [Example 25, 4-[[6-[[1-(4-fluorophenyl)-2-oxo-pyridine-3-carbonyl]amino]-4-methyl-3-pyridyl]oxy]-N-(1-methyl-4-piperidyl)-1,7-naphthyridine-6-carboxamide] | – | 91 nM | 27 nM | – | 54 nM
11 | – | 17 nM | 4 nM | CC(C)n1cc(C(=O)Nc2ccc(Oc3ccnc4cnc(C(=O)NC5CC6CCC(C5)N6C)cc34)cn2)c(=O)n(-c2ccc(F)cc2)c1=O (stereo not drawn) [Example 27.2, 4-[[6-[[3-(4-fluorophenyl)-1-isopropyl-2,4-dioxo-pyrimidine-5-carbonyl]amino]-3-pyridyl]oxy]-N-(8-methyl-8-azabicyclo[3.2.1]octan-3-yl)-1,7-naphthyridine-6-carboxamide] | – | 376 nM | 13 nM | – | 49 nM
12 | 6 nM | 31 nM | – | CC(C)n1cc(C(=O)Nc2ccc(Oc3ccnc4cnc(C(=O)NCCN(C)C)cc34)cn2)c(=O)n(-c2ccc(F)cc2)c1=O [Example 27.3, N-[2-(dimethylamino)ethyl]-4-[[6-[[3-(4-fluorophenyl)-1-isopropyl-2,4-dioxo-pyrimidine-5-carbonyl]amino]-3-pyridyl]oxy]-1,7-naphthyridine-6-carboxamide] | – | 631 nM | 21 nM | – | 44 nM
